In patent US12331068B2, “Compositions and methods for inhibiting CD73” (Peloton Therapeutics, Inc., priority 2018, dated 2025) one finds IC50 data, which are given here for 28 compounds.

One test deals with T1, Human CD73 (Homo sapiens, UniProt P21589).
T1 construct: purchased R&D Systems; host or cells: CHO cells
T1 sequence (P21589 27-549): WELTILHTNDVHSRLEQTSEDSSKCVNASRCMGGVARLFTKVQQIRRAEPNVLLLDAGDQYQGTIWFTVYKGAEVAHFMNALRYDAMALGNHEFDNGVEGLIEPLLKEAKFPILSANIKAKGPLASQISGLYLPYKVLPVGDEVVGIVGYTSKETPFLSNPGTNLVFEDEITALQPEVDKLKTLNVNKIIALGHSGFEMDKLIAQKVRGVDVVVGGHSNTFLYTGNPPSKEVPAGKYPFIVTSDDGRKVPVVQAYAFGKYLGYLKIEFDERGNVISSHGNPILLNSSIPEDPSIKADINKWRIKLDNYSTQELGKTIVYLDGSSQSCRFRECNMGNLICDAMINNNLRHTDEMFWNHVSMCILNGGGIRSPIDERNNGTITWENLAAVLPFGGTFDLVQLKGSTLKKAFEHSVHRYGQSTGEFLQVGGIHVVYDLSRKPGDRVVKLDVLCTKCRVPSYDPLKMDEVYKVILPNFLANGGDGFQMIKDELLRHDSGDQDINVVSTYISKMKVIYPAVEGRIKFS
The experiment in a line: CD73 Enzyme Assay (EnzChek PNP/MESG kinetic readout of AMP hydrolysis). The test is classed as biochemical. To be noted: 0.25 nM hCD73, 25 μM AMP; read-out: CD73 Enzyme Assay IC50. The protocol: A compound of the present disclosure (5 μL) was transferred to a 384-well assay plate. The compound was added in a 15 point, 3-fold serial dilution (300 μM to 0.0002 μM) in DMSO. […] The plate was immediately placed in a plate reader (Synergy 2 or Spark 10), and a reading was taken every minute for 10 to 20 minutes in a kinetic run at 360 nm. The linear portion of the curve was used to determine the observed rate (initial velocity). Low signal controls containing 100 μM adenosine 5′-(α,β-methylene) diphosphate and high signal controls containing no compound were measured for each plate.
IC50 values were calculated using Dotmatics template equation for 4-parameter fit. Results are expressed as % inhibition using the following equation: […]

Test [1] addresses T2, CD73 on U138 human neuroglioma cells (Homo sapiens, UniProt P21589).
T2 construct: U138 cells were obtained from ATCC and cultured in DMEM with 10% FBS; host or cells: U138 human neuroglioma cells
T2 sequence (P21589 27-549): T1 sequence (P21589 27-549)
The experiment in a line: CD73 Cell-Based Assay (inorganic phosphate from AMP, malachite green). To be noted: AMP substrate, 2 hours at 37° C. The protocol:
U138 human neuroglioma cells were used in these experiments. U138 cells were obtained from ATCC and cultured in DMEM with 10% FBS. 2500 cells were seeded into 96-well plate with 100 μL of media the day before the experiment. […] After washing, 100 μL of buffer was added to each well, then 100 μL of a mixture of AMP substrate (200 μM) and diluted compound was added to each well. The cells were incubated at 37° C. (with 5% CO2) for 2 hours. 50 μL of supernatant was transferred to a 96-well assay plate and the concentration of inorganic phosphate was determined using malachite green reagent (R&D System; Cat: DY996).

Setting [2] is: read-out: CD73 Cell-Based assay IC50.

Like-named read-outs stand apart in the source and are kept apart here. A value given as a limit tells only on which side of the number the result lay.

As to `C[C@H](Nc1c(C#N)c(Cl)nc2c1cnn2[C@@H]1O[C@H](COP(=O)(O)CP(=O)(O)O)[C@@H](O)[C@H]1O)c1ccc(F)cc1` [Compound 247], the IC50 (at Human CD73; in test [1] (setting [2])) was < 10 nM each time.

For the compound `N#Cc1c(Cl)nc2c(ccn2[C@@H]2O[C@H](COCP(=O)(O)O)[C@@H](O)[C@H]2O)c1NC1CC2(CC2)C1` [Compound 157], the IC50 (at Human CD73; in test [1] (setting [2])) was < 10 nM each time.

As for `N#Cc1c(Cl)nc2c(ncn2[C@@H]2O[C@H](COCP(=O)(O)O)[C@@H](O)[C@H]2O)c1N1CC2CCCC2C1` (stereo partly drawn) [Compound 57], the IC50 (on Human CD73; in test [1] (setting [2])) was < 10 nM each time.

On to `N#Cc1c(Cl)nc2c(ccn2[C@@H]2O[C@H](COCP(=O)(O)O)[C@@H](O)[C@H]2O)c1N1CC(F)(F)C1` [Compound 65], for which the 50% inhibitory concentration (IC50) (on Human CD73; in test [1] (setting [2])) was < 10 nM throughout.

On to `N#Cc1c(Cl)nc2c(ccn2[C@@H]2O[C@H](CS(=O)(=O)CP(=O)(O)O)[C@@H](O)[C@H]2O)c1NC1CCCC1` [Compound 25, (((((2S,3S,4R,5R)-5-(6-chloro-5-cyano-4-(cyclopentylamino)-1H-pyrrolo[2,3-b]pyridin-1-yl)-3,4-dihydroxytetrahydrofuran-2-yl)methyl)sulfonyl)methyl)phosphonic acid], for which the IC50 on Human CD73 was < 10 nM; in test [1] (setting [2]), < 10 nM; in test [1] (read-out: IC50) it was 0.1 nM.

`C[C@H](Nc1c(C#N)c(Cl)nc2c1cnn2[C@@H]1O[C@H](CS(=O)(=O)CP(=O)(O)O)[C@@H](O)[C@H]1O)c1ccccc1F` [Compound 199]: the IC50 (at Human CD73; in test [1] (setting [2])) was < 10 nM in each case.

`N#Cc1c(Cl)nc2c(c(F)cn2[C@@H]2O[C@H](COCP(=O)(O)O)[C@@H](O)[C@H]2O)c1N1CCC(F)(F)C1` [Compound 151]: the IC50 (on Human CD73; in test [1] (setting [2])) was < 10 nM throughout.

Regarding `N#Cc1c(Cl)nc2c(ccn2[C@@H]2O[C@H](COCP(=O)(O)O)[C@@H](O)[C@H]2O)c1NC1CCC1` [Compound 9], the IC50 (at Human CD73; in test [1] (setting [2])) was < 10 nM throughout.

`N#Cc1c(Cl)nc2c(ccn2[C@@H]2O[C@H](COCP(=O)(O)O)[C@@H](O)[C@H]2O)c1N[C@@H]1CCC(F)(F)C1` [Compound 46]: the IC50 (on Human CD73; in test [1] (setting [2])) was < 10 nM in each case.

For `N#Cc1c(Cl)nc2c(cnn2[C@@H]2O[C@H](CS(=O)(=O)CP(=O)(O)O)[C@@H](O)[C@H]2O)c1N[C@H]1C[C@@H](F)C1` [Compound 150], the IC50 (at Human CD73; in test [1] (setting [2])) was < 10 nM in each case.

On to `N#Cc1c(Cl)nc2c(ncn2[C@@H]2O[C@H](COCP(=O)(O)O)[C@@H](O)[C@H]2O)c1N1CC2CC2C1` (stereo partly drawn) [Compound 58], for which the IC50 (at Human CD73; in test [1] (setting [2])) was < 10 nM each time.

As for `N#Cc1c(Cl)nc2c(ccn2[C@@H]2O[C@H](CS(=O)(=O)CP(=O)(O)O)[C@@H](O)[C@H]2O)c1NC1CC2CC2C1` (stereo partly drawn) [Compound 33], the IC50 (at Human CD73; in test [1] (setting [2])) was < 10 nM each time.

For the compound `N#Cc1c(Cl)nc2c(ccn2[C@@H]2O[C@H](CS(=O)(=O)CP(=O)(O)O)[C@@H](O)[C@@H]2F)c1N1CCC(F)(F)C1` [Compound 171], the IC50 (on Human CD73; in test [1] (setting [2])) was < 10 nM throughout.

For the compound `N#Cc1c(Cl)nc2c(ccn2[C@@H]2O[C@H](CS(=O)(=O)CP(=O)(O)O)[C@@H](O)[C@H]2O)c1NC1CC2(CCC2)C1` [Compound 158], the IC50 (on Human CD73; in test [1] (setting [2])) was < 10 nM each time.

`N#Cc1nc2c(ccn2[C@@H]2O[C@H](COCP(=O)(O)O)[C@@H](O)[C@H]2O)c(N2C[C@@H](F)[C@@H](F)C2)c1Cl` [Compound 103]: the IC50 (on Human CD73; in test [1] (setting [2])) was < 10 nM in each case.

On to `N#Cc1c(Cl)nc2c(ccn2[C@@H]2O[C@H](CS(=O)(=O)CP(=O)(O)O)[C@@H](O)[C@H]2O)c1NC1CC(F)(F)C1` [Compound 20], for which the IC50 (at Human CD73; in test [1] (setting [2])) was < 10 nM throughout.

As for `C[C@@H](Nc1c(C#N)c(Cl)nc2c1ccn2[C@@H]1O[C@H](CS(=O)(=O)CP(=O)(O)O)[C@@H](O)[C@H]1O)c1ccc(F)cc1` [Compound 27, (((((2S,3S,4R,5R)-5-(6-chloro-5-cyano-4-(((R)-1-(4-fluorophenyl)ethyl)amino)-1H-pyrrolo[2,3-b]pyridin-1-yl)-3,4-dihydroxytetrahydrofuran-2-yl)methyl)sulfonyl)methyl)phosphonic acid], the IC50 (on Human CD73; in test [1] (setting [2])) was < 10 nM throughout.

On to `C[C@@H](Nc1c(C#N)c(Cl)nc2c1cnn2[C@@H]1O[C@H](CS(=O)(=O)CP(=O)(O)O)[C@@H](O)[C@H]1O)c1ccccc1F` [Compound 183], for which the IC50 (on Human CD73; in test [1] (setting [2])) was < 10 nM each time.

As to `C[C@H](Nc1c(C#N)c(Cl)nc2c1ccn2[C@@H]1O[C@H](COP(=O)(O)CP(=O)(O)O)[C@@H](O)[C@@H]1F)c1ccc(F)cc1` [Compound 241], the IC50 (on Human CD73; in test [1] (setting [2])) was < 10 nM in each case.

For the compound `C[C@@H](Nc1c(C#N)c(Cl)nc2c1ncn2[C@@H]1O[C@H](COP(=O)(O)CP(=O)(O)O)[C@@H](O)[C@H]1O)c1ccc(F)cn1` [Compound 225], the IC50 (at Human CD73; in test [1] (setting [2])) was < 10 nM throughout.

For the compound `N#Cc1c(Cl)nc2c(ncn2[C@@H]2O[C@H](CS(=O)(=O)CP(=O)(O)O)[C@@H](O)[C@H]2O)c1N1CCC(F)(F)C1` [Compound 118], the IC50 (at Human CD73; in test [1] (setting [2])) was < 10 nM in each case.

Take `N#Cc1c(Cl)nc2c(cnn2[C@@H]2O[C@H](COCP(=O)(O)O)[C@@H](O)[C@H]2O)c1NC1CC(F)(F)C1` [Compound 81]: the IC50 (at Human CD73; in test [1] (setting [2])) was < 10 nM in each case.

In the case of `C[C@H](Nc1c(C#N)c(Cl)nc2c1ccn2[C@@H]1O[C@H](CS(=O)(=O)CP(=O)(O)O)[C@@H](O)[C@H]1O)c1ccc(F)cc1` [Compound 18, (((((2S,3S,4R,5R)-5-(6-chloro-5-cyano-4-(((S)-1-(4-fluorophenyl)ethyl)amino)-1H-pyrrolo[2,3-b]pyridin-1-yl)-3,4-dihydroxytetrahydrofuran-2-yl)methyl)sulfonyl)methyl)phosphonic acid], the IC50 (at Human CD73; in test [1] (setting [2])) was < 10 nM in each case.

On to `Cc1nc2c(ccn2[C@@H]2O[C@H](COCP(=O)(O)O)[C@@H](O)[C@H]2O)c(NC2CCCC2)c1C#N` [Compound 44], for which the IC50 (at Human CD73; in test [1] (setting [2])) was < 10 nM in each case.

`N#Cc1c(Cl)nc2c(cnn2[C@@H]2O[C@H](COCP(=O)(O)O)[C@@H](O)[C@H]2O)c1NC1CC2CC2C1` (stereo partly drawn) [Compound 70]: the IC50 (at Human CD73; in test [1] (setting [2])) was < 10 nM each time.

For the compound `N#Cc1c(Cl)nc2c(ccn2[C@@H]2O[C@H](COP(=O)(O)CP(=O)(O)O)[C@@H](O)[C@H]2O)c1NC1CCCC1` [Compound 3, (((((2R,3S,4R,5R)-5-(6-chloro-5-cyano-4-(cyclopentylamino)-1H-pyrrolo[2,3-b]pyridin-1-yl)-3,4-dihydroxytetrahydrofuran-2-yl)methoxy)(hydroxy)phosphoryl)methyl)phosphonic acid], the IC50 (at Human CD73; in test [1] (setting [2])) was < 10 nM each time.

In the case of `C[C@@H](Nc1c(C#N)c(Cl)nc2c1cnn2[C@@H]1O[C@H](CS(=O)(=O)CP(=O)(O)O)[C@@H](O)[C@H]1O)c1cccc(C#N)c1` [Compound 193], the IC50 (at Human CD73; in test [1] (setting [2])) was < 10 nM throughout.

Consider `N#Cc1c(Cl)nc2c(ccn2[C@@H]2O[C@H](COP(=O)(O)CP(=O)(O)O)[C@@H](O)[C@@H]2F)c1N1CCC(F)(F)C1` [Compound 96], for which the IC50 (on Human CD73; in test [1] (setting [2])) was < 10 nM throughout.
